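Interpolation was linear, between the two tested concentrations surrounding the appropriate level; five concentrations were tested over 48 hours in 96-well plates. GI50: concentration for 50% inhibition of growth. The concentration for full growth arrest is given as TGI.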
What was measured:
Test in all cases: NCI anticancer screen, dose series, 48 h
HT29 colon = test system: HT29 colon
CCRF-CEM leukemia = test system: CCRF-CEM leukemia
UO-31 renal = test system: UO-31 renal
HOP-92 NSCLC = test system: HOP-92 NSCLC
UACC-62 melanoma = test system: UACC-62 melanoma
SK-MEL-5 melanoma = test system: SK-MEL-5 melanoma
EKVX NSCLC = test system: EKVX NSCLC
NCI-H23 lung = test system: NCI-H23 lung
IGROV1 ovarian = test system: IGROV1 ovarian
MDA-N = test system: MDA-N

Row | SMILES | TGI (HT29 colon) [µM] | TGI (CCRF-CEM leukemia) [µM] | TGI (UO-31 renal) [µM] | GI50 (HOP-92 NSCLC) [µM] | TGI (HOP-92 NSCLC) [µM] | TGI (UACC-62 melanoma) [µM] | TGI (SK-MEL-5 melanoma) [µM] | GI50 (EKVX NSCLC) [µM] | TGI (EKVX NSCLC) [µM] | TGI (NCI-H23 lung) [µM] | TGI (IGROV1 ovarian) [µM] | TGI (MDA-N) [µM] | GI50 (HT29 colon) [µM] | GI50 (UO-31 renal) [µM] | GI50 (UACC-62 melanoma) [µM] | GI50 (SK-MEL-5 melanoma) [µM]
1 | C/C(=C/c1c(C)[nH]c(=O)[nH]c1=O)C(=O)O | > 1380 | > 1380 | > 1380 | > 1380 | > 1380 | > 1380 | > 1370 | 1030 | > 1380 | > 1380 | > 1380 | – | – | – | – | –
2 | O=C1C(CN2CCCC2)CCCC1CN1CCCC1 (stereo not drawn) | 33.6 | 0.231 | 2.31 | – | – | 31.9 | 30.4 | – | 13.7 | 4.27 | 32.4 | 19.2 | – | – | – | –
3 | CC(C)(C)OC(=O)NCCNC(=O)CN(CC(=O)O)C1CCCCC1N(CC(=O)O)CC(=O)O (stereo not drawn) | > 100 | > 100 | > 100 | – | > 100 | > 100 | > 100 | – | – | > 100 | > 100 | > 100 | – | – | – | –
4 | COc1ccc(N2C(=O)C3c4[nH]c5ccccc5c4C4CCC(C(C)(C)C)CC4C3C2=O)cc1OC (stereo not drawn) | > 100 | 98.5 | > 100 | – | 44.8 | > 100 | > 100 | – | > 100 | > 100 | > 100 | – | – | – | – | –
5 | Cc1nn(-c2ccccc2)c2c1N=C(C(=O)O)CC(c1ccccc1)=N2 | > 10 | – | – | – | > 10 | > 10 | > 10 | – | – | > 10 | > 10 | > 10 | – | – | – | –
6 | O=c1cc2cc(O)[nH]c(=O)c2c(O)[nH]1 | > 100 | > 100 | > 100 | – | > 100 | > 100 | > 100 | – | – | > 100 | > 100 | – | – | – | – | –
7 | COC(=O)C(N)CCCC(N)C(=O)NC(C)C(=O)NC(CCC(=O)NCCCNc1ccc([N+](=O)[O-])c2[nH]c3ccccc3c(=O)c12)C(N)=O (stereo not drawn) | – | 14.3 | 13.8 | – | 26.1 | 10.8 | 23.9 | – | 20.2 | 17.9 | – | – | – | – | – | –
8 | O=C(NNCc1ccccc1O)c1ccccc1O | > 100 | – | 16.5 | – | > 100 | 55.9 | 25.8 | – | > 100 | > 100 | > 100 | > 100 | – | – | – | –
9 | CC(=O)N1C(OCc2ccccc2)CCN1c1ccccc1 (stereo not drawn) | > 10 | > 10 | > 10 | – | > 10 | – | > 10 | – | – | > 10 | > 10 | > 10 | – | – | – | –
10 | CCCCNCC(O)c1cc(-c2ccc(C(F)(F)F)cc2)nc(-c2ccc(C(F)(F)F)cc2)c1 (stereo not drawn) | 3.62 | – | 3.08 | – | – | 3.67 | 3.26 | – | – | – | – | – | 1.84 | 1.44 | 1.89 | 1.77
11 | c1ccc2nn(C3CCCCO3)nc2c1 (stereo not drawn) | > 100 | > 100 | > 100 | – | – | > 100 | > 100 | – | > 100 | > 100 | > 100 | > 100 | – | – | – | –
12 | O=C1CC(Cl)c2c(Cl)sc(Cl)c21 (stereo not drawn) | 5.93 | – | 3.67 | – | 3.44 | 4.66 | 26.2 | – | 16.4 | 9.32 | 5.09 | 5.94 | – | – | – | –
13 | CN(/N=C/c1ccc(Cl)c(Cl)c1)C1=NCCN1 | > 100 | > 100 | – | – | 62.6 | 35.4 | 30.7 | – | > 100 | > 100 | > 100 | 31.9 | – | – | – | –
14 | CN1N(c2ccccc2)C(=O)C2=NC=C(C#N)C(=N)C21C (stereo not drawn) | – | > 100 | > 100 | – | > 100 | > 100 | > 100 | – | > 100 | > 100 | > 100 | > 100 | – | – | – | –
15 | S=C1CSc2c(cnc3ccccc23)N1 | > 100 | > 100 | > 100 | – | – | > 100 | > 100 | – | > 100 | > 100 | > 100 | > 100 | – | – | – | –
16 | O=C1OC(C(O)C(O)C(O)CO)C(O)C1O (stereo not drawn) | > 100 | > 100 | > 100 | – | > 100 | > 100 | > 100 | – | > 100 | > 100 | > 100 | – | – | – | – | –
17 | C/C(=N\n1c(Cc2ccccc2)n[nH]c1=O)c1ccc([N+](=O)[O-])cc1 | > 100 | – | > 100 | – | > 100 | > 100 | > 100 | – | > 100 | > 100 | > 100 | > 100 | – | – | – | –
18 | CCOC(=O)/C=C1/Nc2cc(F)c(F)cc2NC1=O | > 100 | > 100 | > 100 | – | > 100 | > 100 | > 100 | – | > 100 | > 100 | – | > 100 | – | – | – | –
19 | Cc1ccc(NC(=O)CC(=O)N2N=C(c3ccccc3)C(N=Nc3ccc(S(=O)(=O)CCOS(=O)(=O)O)cc3)C2=O)cc1 (stereo not drawn) | > 100 | > 100 | > 100 | – | > 100 | – | > 100 | – | > 100 | > 100 | > 100 | > 100 | – | – | – | –
20 | C1=C[C@]2(CCC13OCCO3)COc1ccccc12 | 80.4 | > 100 | > 100 | – | > 100 | > 100 | > 100 | – | > 100 | 99.5 | – | > 100 | – | – | – | –
21 | CC(CN(C)C)C(=O)/C=C/c1ccc(Cl)c(Cl)c1 (stereo not drawn) | – | 2.74 | 3.22 | – | 3.48 | 3.69 | 2.99 | – | 3.11 | 5.11 | 3.73 | 6.03 | – | – | – | –
22 | COc1ccc(/C=C/C(C(=O)O)C(=O)O)cc1 | > 100 | 82.3 | > 100 | – | > 100 | > 100 | > 100 | – | > 100 | > 100 | > 100 | – | – | – | – | –
23 | CC(C)(Oc1ccc(C(=O)c2ccc(Cl)cc2)cc1Cl)C(=O)N1CCN(c2ccccc2)CC1 | > 100 | > 100 | > 100 | – | > 100 | > 100 | > 100 | – | > 100 | > 100 | > 100 | – | – | – | – | –
24 | Cc1oc2c(C)c3oc(=O)cc(C)c3cc2c1CN | > 100 | > 100 | > 100 | – | – | > 100 | – | – | > 100 | > 100 | – | – | – | – | – | –

— PubChem BioAssay (NCI)
